In brackets after ≈: the same amount, converted by molar mass. Several values for one entry are separate records, joined by “and”; a condition that tells them apart may be missing. Equal entries are not always repeated. Where two headings read alike, the source gives them in different places.
How the values were obtained:
[1] = tested on: Coccidioides posadasii, Silveira strain; set-up: species or system mice; details: mouse, in vivo
Coccidioides [2] = details: mouse, in vivo, 40 mg/kg/day; cited from earlier work
[3] = mouse, in vivo, cited from earlier work; for Cmax in plasma / Tmax in plasma / t1/2 in plasma: po
Coccidioides [4] = details: mouse, in vivo; cited from earlier work
[5] = human, in vivo, po
[6] = tested on: Coccidioides posadasii, Silveira strain; details: cited from earlier work
[7] = mouse, in vivo, po, cited from earlier work
[8] = dog, in vivo, po
[9] = mouse, in vivo; cited from earlier work
[10] = in vivo, cited from earlier work

## C[C@@H]([C@H](N)C(=O)N[C@H](C(=O)O)[C@H]1O[C@@H](n2ccc(=O)[nH]c2=O)[C@H](O)[C@@H]1O)[C@H](O)c1ccc(O)cn1 [nikZ, Nikkomycin Z]
[1]
  Brains sterilized in survivors: 86% and 89% and 80%
  Brains sterilized, mice/10 treated: ≥ 6 mice/10
  Clear brains of survivors (mice): 6 of 7 and 8 of 9
  Infected brain, number of mice among survivors: 1 and 2
  Infected kidney, number of mice among survivors: 0
  Infected spleen, number of mice among survivors: 0
  Kidney CFU in survivors: number of mice with 0 CFU: 7 and 9 and 10
  Kidney CFU in survivors: number of mice with 1-2 CFU: 0
  Kidney CFU in survivors: number of mice with 10-20 CFU: 0
  Kidney CFU in survivors: number of mice with TNTC (too numerous to count): 0
  Liver CFU in survivors: number of mice with 0 CFU: 6 and 9 and 10
  Liver CFU in survivors: number of mice with 10-20 CFU: 0
  Liver CFU in survivors: number of mice with TNTC (too numerous to count): 0
  Lung CFU in survivors: number of mice with 0 CFU: 6 and 9
  Lung CFU in survivors: number of mice with 10-20 CFU: 0
  Lung CFU in survivors: number of mice with TNTC (too numerous to count): 0
  No infection any organ, number of mice (complete sterilization): 6 and 8
  Spleen CFU in survivors: number of mice with 0 CFU: 7 and 9 and 10
  Spleen CFU in survivors: number of mice with 1-2 CFU: 0
  Spleen CFU in survivors: number of mice with 10-20 CFU: 0
  Spleen CFU in survivors: number of mice with TNTC (too numerous to count): 0
  Survivors: 7/10 and 9/10 and 10/10
Coccidioides [2]
  Survival: 20%
[3]; 100 mg/kg
  Cmax in plasma: 4200 ng/mL
  Tmax in plasma: 2 h
  t1/2 in plasma: 2.2 h
[3]; 300 mg/kg
  Cmax in plasma: 8000 ng/mL
  Tmax in plasma: 1 h
  t1/2 in plasma: 2.3 h
[3]
  Half-life in blood (clearance): 1 to 2 h
Coccidioides [4]
  Liver CFU asymptote of dose response curve: about 100 CFU
  Lung fungal count at suppression (dose response curve): below 10 CFU
  Spleen fungal count at suppression (dose response curve): below 10 CFU
  log10 CFU reduction in liver: −1.7 log10 CFU
  log10 CFU reduction in lung: −3.2 log10 CFU
  log10 CFU reduction in spleen: −1.8 log10 CFU
[5]
  Blood level as % of Cmax by 8 hours: about 5%
  Time to reach Cmax: 1 to 2 h
mouse, in vivo
  Cmin as % of Cmax: 1%
mouse, in vivo, po
  Blood level as % of Cmax by 8 hours: about 5%
  Time to reach Cmax: 1 to 2 h
mouse, in vivo, po, 50 mg/kg
  AUC: 13,000
  Cmax: 3,750 ng/ml
  T 1/2: 2.61 h
  Tmax: 1
mouse, in vivo, po, 100 mg/kg
  AUC: 20,600
  Cmax: 4,620 ng/ml
  T 1/2: 2.15 h
  Tmax: 1
mouse, in vivo, po, 300 mg/kg
  AUC: 38,200
  Cmax: 7,950 ng/ml
  T 1/2: 2.26 h
  Tmax: 2
Time 0.5
  Mouse plasma nikZ level: 2920 ng/mL
  Mouse plasma nikZ level, % (of Cmax): 77.9%
Time 1
  Mouse plasma nikZ level: 3750 ng/mL
  Mouse plasma nikZ level, % (of Cmax): 100%
Time 2
  Mouse plasma nikZ level: 2320 ng/mL
  Mouse plasma nikZ level, % (of Cmax): 62% and 61.9%
Time 4
  Mouse plasma nikZ level: 1400 ng/mL
  Mouse plasma nikZ level, % (of Cmax): 37% and 37.3%
Time 8
  Mouse plasma nikZ level: 180 ng/mL
  Mouse plasma nikZ level, % (of Cmax): 4.8%
Time 12
  Mouse plasma nikZ level: 35 ng/mL
  Mouse plasma nikZ level, % (of Cmax): 0.9%
Time 24
  Mouse plasma nikZ level: 7.5 ng/mL
  Mouse plasma nikZ level, % (of Cmax): 0.2%
[6]
  MFC: 2.5 µg/mL (≈ 5.05 µM)
  MIC: 2.5 µg/mL (≈ 5.05 µM)
[7]; 100 mg/kg
  Cmax in brain: 0.20 mcg/gm
  Tmax in brain: 2 h
  t1/2 in brain: 6.2 h
[7]; 300 mg/kg
  Cmax in brain: 0.26 mcg/gm
  Tmax in brain: 2 h
  t1/2 in brain: 4.4 h
[8]
  Blood level as % of Cmax by 8 hours: about 5%
  Time to reach Cmax: 1 to 2 h
[9]
  Tolerated oral dose: up to 2000 mg/kg/day
[10]; human
  Half-life in blood (clearance): 1 to 2 h
[10]; po
  Dose at which tapering in oral uptake efficiency is observed (breakpoint): about 5.5 mg/kg

## OC(Cn1cncn1)(Cn1cncn1)c1ccc(F)cc1F [FCZ, Fluconazole, reference compound]
[1]
  Brains sterilized in survivors: 20%
  Clear brains of survivors (mice): 1 of 5
  Infected brain and infected other organs, number of mice among survivors: 4
  Infected brain only, number of mice among survivors: 0
  Infected brain, number of mice among survivors: 4
  Infected kidney, number of mice among survivors: 1
  Infected liver, number of mice among survivors: 4
  Infected lung, number of mice among survivors: 4
  Infected spleen, number of mice among survivors: 3
  Kidney CFU in survivors: number of mice with 0 CFU: 5
  Kidney CFU in survivors: number of mice with 1-2 CFU: 0
  Kidney CFU in survivors: number of mice with 10-20 CFU: 0
  Kidney CFU in survivors: number of mice with TNTC (too numerous to count): 0
  Liver CFU in survivors: number of mice with 0 CFU: 1
  Liver CFU in survivors: number of mice with 1-2 CFU: 1
  Liver CFU in survivors: number of mice with 10-20 CFU: 2
  Liver CFU in survivors: number of mice with TNTC (too numerous to count): 1
  Lung CFU in survivors: number of mice with 0 CFU: 1
  Lung CFU in survivors: number of mice with 1-2 CFU: 2
  Lung CFU in survivors: number of mice with 10-20 CFU: 1
  Lung CFU in survivors: number of mice with TNTC (too numerous to count): 1
  No infection any organ, number of mice (complete sterilization): 1
  Semiquantitative culture, CFU in all organs except the spleen: too numerous to count
  Semiquantitative culture, CFU in spleen: no CFU
  Spleen CFU in survivors: number of mice with 0 CFU: 2
  Spleen CFU in survivors: number of mice with 1-2 CFU: 2
  Spleen CFU in survivors: number of mice with 10-20 CFU: 1
  Spleen CFU in survivors: number of mice with TNTC (too numerous to count): 0
  Survival: 50%
  Survivors: 5/10
[6]
  MFC: > 100 µg/mL
  MIC: 6.25 µg/mL (≈ 20.4 µM)

— patent publication US20220331391A1 (priority 2021, published 2022)
